The source made the active and inactive calls.
Experiments:
Format in all cases: functional, organism-based
[1] = system: Escherichia coli; assay: Antimicrobial activity against Escherichia coli at 40 ug after 24 hrs by agar diffusion method
[2] = system: Staphylococcus aureus; assay: Antimicrobial activity against Staphylococcus aureus at 40 ug after 24 hrs by agar diffusion method
[3] = system: Streptomyces viridochromogenes; assay: Antimicrobial activity against Streptomyces viridochromogenes at 40 ug after 24 hrs by agar diffusion method
[4] = system: Bacillus subtilis; assay: Antimicrobial activity against Bacillus subtilis at 40 ug after 24 hrs by agar diffusion method
[5] = system: Candida albicans; assay: Antimicrobial activity against Candida albicans at 40 ug after 24 hrs by agar diffusion method
[6] = system: Chlorella vulgaris; assay: Antimicrobial activity against Chlorella vulgaris at 40 ug after 24 hrs by agar diffusion method
[7] = system: Chlorella sorokiniana; assay: Antimicrobial activity against Chlorella sorokiniana at 40 ug after 24 hrs by agar diffusion method
[8] = system: Desmodesmus subspicatus; assay: Antimicrobial activity against Scenedesmus subspicatus at 40 ug after 24 hrs by agar diffusion method

Measured: Activity

CC(=O)O[C@H](C)[C@@H]1c2cc3cccc(O[C@@H]4O[C@H](C(=O)O)[C@@H](O)[C@H](O)[C@H]4O)c3c(O)c2C(=O)C[C@]1(C)O
inactive: [1] | [2] | [3] | [4] | [5] | [6] | [7] | [8]
